Data: patent US20160311806A1, “4,4'-BIPHENYLDIYL-BIS-(1 H-IMIDAZOLYL) DERIVATIVES AS HEPATITIS HCV INHIBITORS” (BRISTOL-MYERS SQUIBB COMPANY, priority 2013, published 2016)
Like-named read-outs stand apart in the source and are kept apart here.

What was measured:
HCV 1b genotype = experiment: HCV replicon assay, genotype 1b; format: cell-based; conditions: Hepatitis C virus, read-out: 1b LE (EC50)
Description: (§1) An HCV Replicon assay was utilized in the present disclosure, and was prepared, conducted and validated as described in commonly owned PCT/US2006/022197 and in O'Boyle et. al. Antimicrob Agents Chemother. 2005 April; 49(4):1346-53. Assay methods incorporating luciferase reporters have also been used as described (Apath.com).
(§2) HCV-neo replicon cells and replicon cells containing resistance substitutions in the NS5A region were used to test the currently described family of compounds. The compounds were determined to have differing degrees of reduced inhibitory activity on cells containing mutations vs. the corresponding inhibitory potency against wild-type cells. Thus, the compounds of the present disclosure can be effective in inhibiting the function of the HCV NS5A protein and are understood to be as effective in combinations as previously described in application PCT/US2006/022197 and commonly owned WO/04014852. It should be understood that the compounds of the present disclosure can inhibit multiple genotypes of HCV.

HCV 1a = experiment: HCV replicon assay, genotype 1a; format: cell-based; conditions: Hepatitis C virus, read-out: 1a LE (EC50)
Description: as §1, §2

| Structure (SMILES) | EC50 (HCV 1b genotype; given as range class) [pM] | EC50 (HCV 1a; given as range class) [pM] | EC50 (HCV 1b genotype) [pM] | EC50 (HCV 1a) [pM] |
| --- | --- | --- | --- | --- |
| CC[C@@H]1C[C@@H]([C@H](NC(=O)OC)C(=O)N2[C@@H](C)CC[C@H]2c2ncc(-c3ccc(-c4ccc(-c5cnc([C@@H]6CC[C@H](C)N6C(=O)[C@@H](NC(=O)OC)[C@H]6C[C@@H](C)O[C@H](C7CC7)C6)[nH]5)cc4)cc3)[nH]2)C[C@@H](C)O1 [Example 1, methyl N-[(1S)-1-[(2S,4S,6R)-2-cyclopropyl-6-methyloxan-4-yl]-2-[(2S,5S)-2-{5-[4-(4-{2-[(2S,5S)-1-[(2S)-2-[(2R,4S,6R)-2-ethyl-6-methyloxan-4-yl]-2-[(methoxycarbonyl)amino]acetyl]-5-methylpyrrolidin-2-yl]-1H-imidazol-5-yl}phenyl)phenyl]-1H-imidazol-2-yl}-5-methylpyrrolidin-1-yl]-2-oxoethyl]carbamate] | 2 to 8 | 2 to 8 |  |  |
| CC[C@@H]1C[C@@H]([C@H](NC(=O)OC)C(=O)N2[C@@H](C)CC[C@H]2c2ncc(-c3ccc(-c4ccc(-c5cnc([C@@H]6CC[C@H](C)N6C(=O)[C@@H](NC(=O)OC)[C@H]6C[C@@H](C)O[C@H](C7CC7)C6)[nH]5)cc4)cc3)[nH]2)CCO1 [Example 2, methyl N-[(1S)-1-[(2S,4S,6R)-2-cyclopropyl-6-methyloxan-4-yl]-2-[(2S,5S)-2-{5-[4-(4-{2-[(2S,5S)-1-[(2S)-2-[(2R,4S)-2-ethyloxan-4-yl]-2-[(methoxycarbonyl)amino]acetyl]-5-methylpyrrolidin-2-yl]-1H-imidazol-5-yl}phenyl)phenyl]-1H-imidazol-2-yl}-5-methylpyrrolidin-1-yl]-2-oxoethyl]carbamate] |  |  | 5.76 | 4.52 |
| COC(=O)N[C@H](C(=O)N1[C@@H](C)CC[C@H]1c1ncc(-c2ccc(-c3ccc(-c4cnc([C@@H]5CC[C@H](C)N5C(=O)[C@@H](NC(=O)OC)[C@H]5C[C@@H](C)O[C@H](C6CC6)C5)[nH]4)cc3)cc2)[nH]1)C(C)C [Example 3, methyl N-[(1S)-1-[(2S,4S,6R)-2-cyclopropyl-6-methyloxan-4-yl]-2-[(2S,5S)-2-{5-[4-(4-{2-[(2S,5S)-1-[(2S)-2-[(methoxycarbonyl)amino]-3-methylbutanoyl]-5-methylpyrrolidin-2-yl]-1H-imidazol-5-yl}phenyl)phenyl]-1H-imidazol-2-yl}-5-methylpyrrolidin-1-yl]-2-oxoethyl]carbamate] |  |  | 2.72 | 7.18 |
| COC(=O)N[C@H](C(=O)N1[C@@H](C)CC[C@H]1c1ncc(-c2ccc(-c3ccc(-c4cnc([C@@H]5CC[C@H](C)N5C(=O)[C@H](NC(=O)OC)c5ccccc5)[nH]4)cc3)cc2)[nH]1)[C@H]1C[C@@H](C)O[C@H](C2CC2)C1 [Example 4, methyl N-[(1S)-1-[(2S,4S,6R)-2-cyclopropyl-6-methyloxan-4-yl]-2-[(2S,5S)-2-{5-[4-(4-{2-[(2S,5S)-1-[(2R)-2-[(methoxycarbonyl)amino]-2-phenylacetyl]-5-methylpyrrolidin-2-yl]-1H-imidazol-5-yl}phenyl)phenyl]-1H-imidazol-2-yl}-5-methylpyrrolidin-1-yl]-2-oxoethyl]carbamate] | 2 to 8 | 2 to 8 |  |  |
| COC(=O)N[C@H](C(=O)N1[C@@H](C)CC[C@H]1c1ncc(-c2ccc(-c3ccc(-c4cnc([C@@H]5CC[C@H](C)N5C(=O)[C@@H](NC(=O)OC)[C@H]5C[C@@H](C)O[C@H](C6CC6)C5)[nH]4)cc3)cc2)[nH]1)C1C[C@@H](C)O[C@H](C)C1 (stereo partly drawn) [Example 5, methyl N-[(1S)-1-[(2S,4S,6R)-2-cyclopropyl-6-methyloxan-4-yl]-2-[(2S,5S)-2-{5-[4-(4-{2-[(2S,5S)-1-[(2S)-2-[(2R,6R)-2,6-dimethyloxan-4-yl]-2-[(methoxycarbonyl)amino]acetyl]-5-methylpyrrolidin-2-yl]-1H-imidazol-5-yl}phenyl)phenyl]-1H-imidazol-2-yl}-5-methylpyrrolidin-1-yl]-2-oxoethyl]carbamate] | 2 to 8 | 2 to 8 |  |  |
